In patent publication US5952312A, “NADH and NADPH therapeutic agents for nasal, sublingual, rectal and dermal administration” (Birkmayer Pharmaceuticals, Inc., priority 1998, dated 1999):
“Also recorded” adds a separate entry of the source. Where a name gives a salt, the structure may show the parent alone.

Legend:
cell degeneration = details: presence of uncoupled mitochondria; cited from earlier work
[1] = test system: skin proliferation layer cells; assay type: in vivo; details: topical; for penetration of cutis and entry into cells of the skin proliferation layer: radiolabelled
mitochondria = experiment: stimulation of mitochondrial energy production of skin cells; assay type: cell-based
From the text: (§1) The NADH encapsulated by the liposomes is simply applied topically to the skin, and is rubbed into the skin to ensure penetration.

skin cells = experiment: topical application: skin cell life, water uptake, wrinkles; assay type: in vivo
From the text: as §1

Alzheimer's disease [2] = experiment: nasal administration in Alzheimer's disease; assay type: in vivo, human
From the text: (§2) However, I have now discovered that NADH and/or NADPH is also effective when administered topically (as described above for prolonging the life of skin cells and reducing wrinkles), sublingually, rectally and nasally.

Parkinson's disease [3] = experiment: nasal administration in Parkinson's disease; assay type: in vivo, human
From the text: as §2

[4] = nasal absorption and transport to the brain; assay type: in vivo; details: inhaled through nasal passages
From the text: For a powder spray, the NADH is simply ground into a fine powder and atomized from a spray bottle. Preferably, pure NADH is used for the powder spray, however, it can be used in conjunction with a filler, such as mannitol, as described below.

[5] = dissolution in fluids secreted by the olfactory mucous membrane; assay type: physicochemical; details: fluids of the olfactory epithelium
Experimental: Thus, in accordance with the invention, the NADH may be administered to the nasal cavity of a patient afflicted with Parkinson's disease, Alzheimer's disease or mental depression. The NADH may be applied alone or in combination with other substances, for example, a pharmaceutically acceptable carrier or an agent that facilitates the transfer of the NADH through the nasal mucosa. The NADH is administered intranasally as a powder, spray, gel, ointment, infusion, injection or nose drops. The NADH is delivered to the nasal cavity. It is preferred that the NADH be delivered to the olfactory area in the upper third of the nasal cavity, and particularly to the olfactory neuroepithelium in order to promote transport of the NADH into the peripheral olfactory neurons rather than the capillaries within the respiratory epithelium. It is preferred that the transport of NADH to the brain be by means of the nervous system rather than the circulatory system so that the blood-brain barrier from the bloodstream into the brain is circumvented. However, good results can also be obtained through the bloodstream. […] The NADH may be combined with a carrier or other substance that fosters dissolution within nasal secretions, such as the ganglioside GM-1 or the phospolipid phosphatidylserine, or emulsifiers such as polysorbate 80. […]

[6] = sublingual administration; assay type: in vivo
From the text: The NADH is merely placed underneath the tongue and resorbed. Unlike the oral form of NADH described in U.S. Pat. No. 5,332,727, a sublingual form should not be coated with an acid stable protective coating.

[7] = rectal administration (suppositories); assay type: in vivo
Experimental: It has also been discovered that good results are obtained when NADH is administered rectally. […] NADH may be administered rectally in the form of suppositories. A suitable suppository formulations are: […]

stability against pH = assay type: physicochemical
From the text: The NADH may be entrapped in the liposomes in either of two ways. The NADH may be dissolved in the organic solvent together with the lipid(s) and the detergent(s) during the liposome formation. By this procedure, the NADH will be present in the lipid film before the film is solubilized. Alternatively, the NADH may be entrapped by dissolving it in the aqueous solvent (preferably buffered) before the lipid film is exposed to the aqueous solvent. It is important that the aqueous solution of NADH not have a pH below 7 as NADH (and NADPH) are very unstable at pHs below 7. This second method of entrapment (i.e., dissolving NADH in aqueous solution) is preferred.

[8] = shelf/storage stability of pure substance and formulations; assay type: physicochemical; details: protected from light
From the text: (§3) Although NADH and/or NADPH may be used by themselves in pure form (they are quite stable in compressed form when protected from light), it is preferred that they be combined in a galenic formulation with a stabilizer, and most preferably with both a stabilizer and a filler. The use of a stabilizer is preferred to prevent oxidation of NADH and NADPH to NAD^+ and […] , respectively. Although, NADH and NADPH are active for the variety of therapeutic effects discussed above, NAD^+ and NADP^+ are ineffective. Therefore, oxidation of NADH and NADPH must be prevented during storage to provide for a reasonable shelf life. […] NADH/NADPH formulations containing such stabilizers are stable for up to two years. Other various stabilizers will become apparent tc those skilled in the art.
In general, a preferred formulation will include about 3 to 10% by weight NADH and/or NADPH; about 1 to 10% by weight stabilizer; and the remainder as filler. Such a formulation, after being compressed into a pill and coated, is stable for over 24 months.

Parkinsonian patients = experiment: motor system in Parkinsonian patients; assay type: in vivo, human; details: sublingual, rectal or nasal; single 5 to 500 mg, daily 5 to 1,500 mg
Experimental: A suitable single dose of NADH and/or NADPH for sublingual, rectal or nasal application is 5 to 500 mg, preferably 25 to 100 mg. A suitable daily dose is 5 to 1,500 mg, preferably 25 to 300 mg.

[9] = compatibility with lactose; assay type: physicochemical; details: lactose as filler
From the text: Suitable fillers for use with NADH and NADPH include: mannitol, microcrystalline cellulose, carboxymethyl cellulose; and dibasic calcium phosphate. Other suitable fillers will become apparent to those skilled in the art.

mitochondrial enzymes = experiment: stimulation of enzymes essential for the energy production of skin cells; assay type: cell-based; details: topical
From the text: In accordance with the invention, an NADH and/or NADPH composition is provided for topical application to the skin. […] The enzymes stimulated are principally the mitochondrial enzymes. The NADH and/or NADPH can be incorporated into a skin compatible cream, lotion or cosmetic, or can be combined with micelles of lipophilic substances. Liposomes are preferred vesicles for delivering the greatest dosages of NADH and/or NADPH into the skin.

Parkinson's disease [10] = details: intravenous, patients with Parkinson's disease; cited from earlier work
[11] = after intravenous application; cited from earlier work
[12] = oral form; cited from earlier work
Parkinson's disease [13] = details: earlier patents; cited from earlier work
Alzheimer's disease [14] = details: orally or intravenously; cited from earlier work
[15] = therapeutic activity of the oxidized forms; details: in vivo
From the text: as §3

Compound	absorption by the skin and uptake by the skin cells [1]	entry into cells of the proliferation layer, not encapsulated by liposomes [1]	penetration of cutis and entry into cells of the skin proliferation layer [1]	distribution to mitochondria and stimulation of energy production of the cell (mitochondria)	cell life (skin cells)	water uptake by the cell / wrinkle formation (skin cells)	dissolution in nasal secretions [5]	effectiveness when administered sublingually [6]	stability at pH below 7 (stability against pH)	stability in pure compressed form [8]	effect on motor system (Parkinsonian patients)	stimulation of enzymes essential for energy production of skin cells (mitochondrial enzymes)	beneficial effect (Parkinson's disease [10])	duration of beneficial effect (Parkinson's disease [10])	degradation in plasma and blood [11]	absorption by the intestine [12]	usefulness/effectiveness in Parkinson's disease (Parkinson's disease [13])	effectiveness in Alzheimer's disease (Alzheimer's disease [14])	therapeutic effectiveness of oxidized forms [15]	further results
C[C@@H](O)CC(=O)O [D(-)-β-hydroxybutyrate sodium salt]	–	–	–	–	–	–	–	–	–	–	–	–	–	–	–	–	–	–	–	inhibition of cell degeneration (cell degeneration): inhibited cell degeneration resulting from the presence of uncoupled mitochondria in a dose dependent manner
NC(=O)C1=CN([C@@H]2O[C@H](COP(=O)(O)OP(=O)(O)OC[C@H]3O[C@@H](n4cnc5c(N)ncnc54)[C@H](O)[C@@H]3O)[C@@H](O)[C@H]2O)C=CC1 [NADH, nicotinamide adenine dinucleotide in its reduced form]	absorbed by the skin and penetrate the cutis to be taken up by the skin cells	enters the cells of the proliferation layer	crosses the cutis and enters the cells which comprise the skin proliferation layer	goes to the mitochondria where it stimulates the energy production of the cell	prolonged cell life	increased water uptake by the cell, thereby reducing wrinkle formation	capable of at least partially dissolving in the fluids	effective when administered sublingually	very unstable	quite stable	improve the motor system in Parkinsonian patients	stimulate certain enzymes which are essential for the energy production of the cells	remarkable beneficial effect	at least 24 hours	not rapidly degraded in the plasma and blood	absorbed by the intestine	effective in the treatment of Parkinson's disease; also recorded: useful in the treatment of Parkinson's Disease	effective in the treatment of Parkinson's disease and Alzheimer's disease	–	effectiveness by nasal application in Alzheimer's disease (Alzheimer's disease [2]): particularly effective in the treatment of Alzheimer's disease; speed of results, nasal (Alzheimer's disease [2]): very fast results; effectiveness by nasal application in Parkinson's disease (Parkinson's disease [3]; nasal): particularly effective in the treatment of Alzheimer's disease and Parkinson's disease; therapeutic effects, nasal vs oral form (Parkinson's disease [3]; nasal powder spray): same therapeutic effects as the oral form; nasal absorption and transport to the brain [4]: travels directly to the brain, circumventing the blood-brain barrier; also recorded: absorbed by the mucosa of the nose and travels to the brain through the olfactory neural pathway; speed of results, sublingual [6]: very fast results; results when administered rectally [7]: good results; speed of results, rectal ([7]; compared with nasal or sublingual): not obtained as quickly as in the case of nasal or sublingual administration; reaction with lactose [9]: reacts with NADH
NC(=O)C1=CN([C@@H]2O[C@H](COP(=O)(O)OP(=O)(O)OC[C@H]3O[C@@H](n4cnc5c(N)ncnc54)[C@H](OP(=O)(O)O)[C@@H]3O)[C@@H](O)[C@H]2O)C=CC1 [NADPH, nicotinamide adenine phosphate dinucleotide in its reduced form]	absorbed by the skin and penetrate the cutis to be taken up by the skin cells	enters the cells of the proliferation layer	crosses the cutis and enters the cells which comprise the skin proliferation layer	goes to the mitochondria where it stimulates the energy production of the cell	prolonged cell life	increased water uptake by the cell, thereby reducing wrinkle formation	capable of at least partially dissolving in the fluids	effective when administered sublingually	very unstable	quite stable	improve the motor system in Parkinsonian patients	stimulate certain enzymes which are essential for the energy production of the cells	remarkable beneficial effect	at least 24 hours	not rapidly degraded in the plasma and blood	absorbed by the intestine	effective in the treatment of Parkinson's disease; also recorded: useful in the treatment of Parkinson's Disease	effective in the treatment of Parkinson's disease and Alzheimer's disease	–	–
NC(=O)c1ccc[n+]([C@@H]2O[C@H](COP(=O)([O-])OP(=O)(O)OC[C@H]3O[C@@H](n4cnc5c(N)ncnc54)[C@H](OP(=O)(O)O)[C@@H]3O)[C@@H](O)[C@H]2O)c1 [NADP^+]	–	–	–	–	–	–	–	–	–	–	–	–	–	–	–	–	–	–	ineffective	–
NC(=O)c1ccc[n+]([C@@H]2O[C@H](COP(=O)([O-])OP(=O)(O)OC[C@H]3O[C@@H](n4cnc5c(N)ncnc54)[C@H](O)[C@@H]3O)[C@@H](O)[C@H]2O)c1 [NAD^+]	–	–	–	–	–	–	–	–	–	–	–	–	–	–	–	–	–	–	ineffective	–
